PubChem BioAssay AID1918943 (Molecular Pharmacology Branch, DTP, NCI, 2023)

Tested on: 855422-203-R-J1-PDC complex spheroid viability
Test: Anticancer human tumor 855422-203-R-J1-PDC patient-derived bladder carcinoma cell line growth inhibition
Conditions: for IC50: curve of first compound; for viability, T/C: stronger effect = lower value
Outline: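 Multicellular complex spheroids of tumor cells with human endothelial cells (HUVEC) and mesenchymal stem cells; the LSD1 inhibitor iadademstat was combined with standard-of-care or investigational agents. Top concentration at or near clinical Cmax, half-log dilutions; final DMSO ≤0.25%.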

[1] = second compound 0.1 µM, first compound 0.000316 µM
[2] = second compound 0.1 µM, first compound 0.001 µM
[3] = second compound 0.1 µM, first compound 0.00316 µM
[4] = second compound 0.1 µM, first compound 0.01 µM
[5] = second compound 0.1 µM, first compound 0.0316 µM
[6] = second compound 0.1 µM, first compound 0.1 µM
[7] = second compound 0.316 µM, first compound 0.000316 µM
[8] = second compound 0.316 µM, first compound 0.001 µM
[9] = second compound 0.316 µM, first compound 0.00316 µM
[10] = second compound 0.316 µM, first compound 0.01 µM
[11] = second compound 0.316 µM, first compound 0.0316 µM
[12] = second compound 0.316 µM, first compound 0.1 µM
[13] = second compound 1 µM, first compound 0.000316 µM
[14] = second compound 1 µM, first compound 0.001 µM
[15] = second compound 1 µM, first compound 0.00316 µM
[16] = second compound 1 µM, first compound 0.01 µM
[17] = second compound 1 µM, first compound 0.0316 µM
[18] = second compound 1 µM, first compound 0.1 µM
[19] = second compound 3.16 µM, first compound 0.000316 µM
[20] = second compound 3.16 µM, first compound 0.001 µM
[21] = second compound 3.16 µM, first compound 0.00316 µM
[22] = second compound 3.16 µM, first compound 0.01 µM
[23] = second compound 3.16 µM, first compound 0.0316 µM
[24] = second compound 3.16 µM, first compound 0.1 µM
[25] = second compound 10 µM, first compound 0.000316 µM
[26] = second compound 10 µM, first compound 0.001 µM
[27] = second compound 10 µM, first compound 0.00316 µM
[28] = second compound 10 µM, first compound 0.01 µM
[29] = second compound 10 µM, first compound 0.0316 µM
[30] = second compound 10 µM, first compound 0.1 µM
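Note: drug exposure lasted 7 days starting on day 3 after seeding.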
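Throughout, for viability, T/C: luminescence viability as percent of DMSO vehicle wells = 100%.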

SMILES	IC50 (second compound 0.1 µM)	IC50 (second compound 0.316 µM)	IC50 (second compound 1 µM)	IC50 (second compound 3.16 µM)	IC50 (second compound 10 µM)	viability, T/C [1]	viability, T/C [2]	viability, T/C [3]	viability, T/C [4]	viability, T/C [5]	viability, T/C [6]	viability, T/C [7]	viability, T/C [8]	viability, T/C [9]	viability, T/C [10]	viability, T/C [11]	viability, T/C [12]	viability, T/C [13]	viability, T/C [14]	viability, T/C [15]	also measured
CC(C)CC(NC(=O)C(Cc1ccccc1)NC(=O)c1cnccn1)B(O)O (stereo not given) + NC1CCC(NC2CC2c2ccccc2)CC1	0.527 nM	0.428 nM	0.484 nM	0.498 nM	0.463 nM	88%	2.43%	0.03%	0.01%	0.02%	0.1%	67.2%	2.02%	0.02%	1.84%	0.01%	1.34%	78.2%	1.83%	0.03%	viability, T/C [16]: 0.01%; viability, T/C [17]: 0.01%; viability, T/C [18]: 2.03%; viability, T/C [19]: 81.7%; viability, T/C [20]: 1.37%; viability, T/C [21]: 0.09%; viability, T/C [22]: 0.01%; viability, T/C [23]: 0.02%; viability, T/C [24]: 0.05%; viability, T/C [25]: 74.6%; viability, T/C [26]: 0.29%; viability, T/C [27]: 0.05%; viability, T/C [28]: 0.08%; viability, T/C [29]: 0.12%; viability, T/C [30]: 0.14%
CC(C)CC(NC(=O)CNC(=O)c1cc(Cl)ccc1Cl)B1OC(=O)CC(CC(=O)O)(C(=O)O)O1 (stereo not given) + NC1CCC(NC2CC2c2ccccc2)CC1	1.8 nM	1.7 nM	1.67 nM	1.63 nM	1.52 nM	95.9%	89.3%	12.2%	1.62%	0.03%	0.09%	100%	90.4%	3.11%	1.91%	0.02%	0.09%	91.9%	87%	3.87%	viability, T/C [16]: 0.69%; viability, T/C [17]: 0.02%; viability, T/C [18]: 0.1%; viability, T/C [19]: 89.8%; viability, T/C [20]: 85.3%; viability, T/C [21]: 2.25%; viability, T/C [22]: 0.69%; viability, T/C [23]: 0.04%; viability, T/C [24]: 0.1%; viability, T/C [25]: 77.6%; viability, T/C [26]: 76.9%; viability, T/C [27]: 2.8%; viability, T/C [28]: 0.29%; viability, T/C [29]: 0.12%; viability, T/C [30]: 3.15%
